The record followed here is PubChem BioAssay (NCI).

Among the test systems are NCI-H226 lung; HL-60(TB) leukemia; LXFL 529 NSCLC; RXF 393 renal; TK-10 renal; K-562 leukemia; SK-OV-3 ovarian; DLD-1 colon; PC-3 prostate; MDA-N; MDA-MB-435.
Common to all, as to assay: growth of human tumour cells (NCI), 48 h

Where “and” joins values, the source holds several entries; their conditions need not be identical. Equal values may be shown once.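 Briefly, cells in 96-well plates were exposed to five compound concentrations for 48 h, and endpoints were estimated by linear interpolation. GI50 is the concentration that inhibits growth by half. TGI: total growth inhibition.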

For `Cc1ccc(S(=O)(=O)OC(c2ccc(Cl)cc2Cl)C2OC(=O)c3ccccc32)cc1` (centres undefined), the TGI in the experiment on NCI-H226 lung is > 100 µM; in the experiment with HL-60(TB) leukemia, 86.1 µM; in the experiment on LXFL 529 NSCLC, > 100 µM; with RXF 393 renal it was > 100 µM; in the experiment with TK-10 renal it was > 100 µM; with K-562 leukemia, > 100 µM.
With `C=C(C)C(=O)OC1CCC2(C)C(CCC3C2CCC2(C)C(c4ccc(=O)oc4)CC4OC432)C1` (centres undefined), the TGI was found to be 48.1 µM in the experiment with NCI-H226 lung; 9.64 µM with HL-60(TB) leukemia; 99.8 µM in the experiment with SK-OV-3 ovarian; 9.95 µM in the experiment on RXF 393 renal; 32.9 µM in the experiment on K-562 leukemia; 7.38 µM in the experiment on DLD-1 colon.
In the case of `Clc1ccccc1/C=C/c1cscn1`, the TGI in the experiment on HL-60(TB) leukemia, in the experiment with LXFL 529 NSCLC, in the experiment on SK-OV-3 ovarian, with RXF 393 renal, in the experiment on TK-10 renal and with K-562 leukemia was > 100 µM in each case. Further, the TGI with DLD-1 colon was > 100 µM.
For `CCN(CC)CC(=O)O[C@]1(CC)C(=O)OCc2c1cc1n(c2=O)Cc2cc3ccccc3nc2-1`, the TGI in the experiment with PC-3 prostate is > 100 µM; with MDA-N it was 1.58 µM; with NCI-H226 lung it was 0.23 µM; with HL-60(TB) leukemia, 0.401 µM; with LXFL 529 NSCLC, 3.3 µM; in the experiment on RXF 393 renal, 0.564 µM. Also, the TGI in the experiment with TK-10 renal was 24.9 µM; in the experiment on K-562 leukemia it was 38.3 µM; in the experiment with DLD-1 colon, > 100 µM; in the experiment on MDA-MB-435, 0.862 µM.
With `CCc1c(C)c(C#N)c(=S)n(C2OC(COC(C)=O)C(OC(C)=O)C(OC(C)=O)C2OC(C)=O)c1C` (centres undefined), the TGI in the experiment on PC-3 prostate was > 100 µM and 27.9 µM; in the experiment with MDA-N, > 100 µM; in the experiment with NCI-H226 lung, > 100 µM; in the experiment on HL-60(TB) leukemia it was > 100 µM; in the experiment on SK-OV-3 ovarian, > 100 µM and 84.6 µM; with RXF 393 renal it was > 100 µM and 29.1 µM. Further, the TGI was > 100 µM and 69.4 µM in the experiment on TK-10 renal; > 100 µM with K-562 leukemia; > 100 µM in the experiment with MDA-MB-435. Moreover, the GI50 in the experiment with NCI-H226 lung was > 100 µM and 38.2 µM; in the experiment with SK-OV-3 ovarian, 63.4 µM and 20.8 µM; with TK-10 renal, 92.8 µM and 26.3 µM.
For `O=C1CCCC2(c3ccccc3)Nc3ccccc3N12` (centres undefined), the TGI in the experiment with PC-3 prostate, with MDA-N, in the experiment with NCI-H226 lung, in the experiment on HL-60(TB) leukemia, in the experiment on SK-OV-3 ovarian and in the experiment on RXF 393 renal was > 100 µM each time. The TGI in the experiment on TK-10 renal, with K-562 leukemia and in the experiment on MDA-MB-435 was > 100 µM throughout.
`CN1C2CCC1CC(CCNC(c1ccccc1)c1ccccc1)C2` (centres undefined): the TGI was > 100 µM in the experiment with PC-3 prostate; 30.6 µM in the experiment on MDA-N; > 100 µM in the experiment on NCI-H226 lung; > 100 µM in the experiment on HL-60(TB) leukemia; > 100 µM with SK-OV-3 ovarian; 39.1 µM in the experiment on RXF 393 renal. In addition, the TGI amounted to 55 µM in the experiment with TK-10 renal, 27.4 µM in the experiment on K-562 leukemia and 21.4 µM with MDA-MB-435.
As for `Cc1[nH]n(C2=NCCN2)c(=O)c1Cc1ccccc1`, the TGI with PC-3 prostate, in the experiment with MDA-N, with NCI-H226 lung, in the experiment on HL-60(TB) leukemia, in the experiment with SK-OV-3 ovarian and with RXF 393 renal was > 100 µM throughout. In addition, the TGI in the experiment with TK-10 renal, in the experiment with K-562 leukemia and in the experiment with MDA-MB-435 was > 100 µM in each case.
Regarding `CCOC(=O)C(O)(NC(=O)c1ccc(F)cc1)C(F)(F)F` (centres undefined), the TGI in the experiment with PC-3 prostate, in the experiment with MDA-N, in the experiment on NCI-H226 lung, in the experiment with HL-60(TB) leukemia, in the experiment with SK-OV-3 ovarian and in the experiment with RXF 393 renal was > 100 µM throughout. Besides, the TGI in the experiment with TK-10 renal, in the experiment with K-562 leukemia and with MDA-MB-435 was > 100 µM each time.
Turning to `COC(=O)CCc1cc(O)c2c(c1)C(C(=O)OC)C(c1ccc(O)c(O)c1)O2` (centres undefined), the TGI in the experiment on PC-3 prostate is > 100 µM; in the experiment on MDA-N, 13.3 µM; in the experiment on NCI-H226 lung it was > 75 µM; in the experiment on HL-60(TB) leukemia, > 21.8 µM; with SK-OV-3 ovarian, > 93 µM; in the experiment on RXF 393 renal it was > 100 µM. In addition, the results for the TGI in the experiment on TK-10 renal, in the experiment on K-562 leukemia and in the experiment on MDA-MB-435 were > 100 µM, 10.6 µM and 4.67 µM, respectively.
Take `CC(C)(C)C1=CC(=C(c2ccc(-c3c4nc(c(-c5ccc(C(=C6C=C(C(C)(C)C)C(=O)C(C(C)(C)C)=C6)c6cc(C(C)(C)C)c(O)c(C(C)(C)C)c6)cc5)c5ccc([nH]5)c(-c5ccc(C(=C6C=C(C(C)(C)C)C(=O)C(C(C)(C)C)=C6)c6cc(C(C)(C)C)c(O)c(C(C)(C)C)c6)cc5)c5nc(c(-c6ccc(C(=C7C=C(C(C)(C)C)C(=O)C(C(C)(C)C)=C7)c7cc(C(C)(C)C)c(O)c(C(C)(C)C)c7)cc6)c6ccc3[nH]6)C=C5)C=C4)cc2)c2cc(C(C)(C)C)c(O)c(C(C)(C)C)c2)C=C(C(C)(C)C)C1=O`: the TGI with PC-3 prostate, in the experiment with MDA-N, in the experiment with NCI-H226 lung, in the experiment with HL-60(TB) leukemia, with SK-OV-3 ovarian and in the experiment on RXF 393 renal was > 100 µM each time. Also, the TGI in the experiment with TK-10 renal, in the experiment with K-562 leukemia and with MDA-MB-435 was > 100 µM throughout.
For `CC(=O)N[C@@H](Cc1ccc(O)cn1)C(=O)NCc1cccc(Cl)c1`, the TGI in the experiment with PC-3 prostate, in the experiment with MDA-N, in the experiment on NCI-H226 lung, in the experiment with HL-60(TB) leukemia, with SK-OV-3 ovarian and in the experiment with RXF 393 renal was > 100 µM each time. Also, the TGI with TK-10 renal, in the experiment on K-562 leukemia and in the experiment on MDA-MB-435 was > 100 µM in each case.
Consider `C=C(CC[C@@H](C)[C@H]1CC[C@@]2(C)C3=C(CC[C@]12C)[C@@]1(C)CC[C@H](O)[C@@H](C)C1CC3)C(C)C` (some centres undefined), for which the TGI in the experiment on PC-3 prostate was found to be 2.28 µM; in the experiment with MDA-N, 2.33 µM; in the experiment with NCI-H226 lung, 5.01 µM; in the experiment on HL-60(TB) leukemia it was 8.32 µM; in the experiment on SK-OV-3 ovarian it was 2.79 µM; in the experiment on RXF 393 renal it was 2.54 µM. For the same molecule, the TGI in the experiment on TK-10 renal turned out to be 2.56 µM; in the experiment on K-562 leukemia it was 1.18 µM; in the experiment on MDA-MB-435, 2.82 µM.
As to `CNC(=O)N1CN(c2ccccc2)C2(CCN(CCCC3(c4ccc(F)cc4)OCCO3)CC2)C1=O`, the TGI with PC-3 prostate, in the experiment with MDA-N, with NCI-H226 lung, in the experiment on HL-60(TB) leukemia, in the experiment on SK-OV-3 ovarian and with RXF 393 renal was > 100 µM in each case. Besides, the TGI with TK-10 renal, in the experiment with K-562 leukemia and in the experiment on MDA-MB-435 was > 100 µM in each case.
With `O=C(O)[C@@H]1CSCN1C(=O)[C@@H]1CCC(=S)N1`, the TGI in the experiment on PC-3 prostate, with MDA-N, with NCI-H226 lung, with HL-60(TB) leukemia, with SK-OV-3 ovarian and with RXF 393 renal was > 100 µM each time. Further, the TGI with TK-10 renal, with K-562 leukemia and in the experiment on MDA-MB-435 was > 100 µM each time.
As to `CC(=NNC(=S)Nc1ccc(C)cc1)c1cccc(C(C)=NNC(=S)Nc2ccc(C)cc2)n1`, the TGI is > 100 µM with PC-3 prostate; > 100 µM with MDA-N; 73.6 µM in the experiment with NCI-H226 lung; 15.7 µM in the experiment on HL-60(TB) leukemia; 97.6 µM in the experiment on SK-OV-3 ovarian; 72 µM in the experiment on RXF 393 renal. The TGI in the experiment with TK-10 renal is > 100 µM; in the experiment on K-562 leukemia it was 66.3 µM; in the experiment with MDA-MB-435, > 100 µM.
For `Cc1ccc(NC(=S)N/N=C(/c2ccccc2)c2ccccn2)cc1`, the TGI was 20.9 µM with PC-3 prostate; 19.5 µM in the experiment with MDA-N; 2.07 µM in the experiment with NCI-H226 lung; 2.26 µM in the experiment on HL-60(TB) leukemia; 9.29 µM in the experiment with SK-OV-3 ovarian; 12.7 µM in the experiment with RXF 393 renal. The TGI in the experiment with TK-10 renal came out at 2.44 µM; with K-562 leukemia, 4.61 µM; with MDA-MB-435, 14.7 µM.
